Assay results taken from PubChem BioAssay AID276 (DTP/NCI, 2004).
Where “and” joins values, the source holds several entries; their conditions need not be identical. Equal values may be shown once. Toxic doses and inconclusive results are not listed. The calls were made as follows: active = survival T/C of 150% or more; inactive = T/C below 125% in these data.

Tested on: B6C3F1 mice, Lewis lung carcinoma iv, survival T/C
Assay: NCI In Vivo Anticancer Drug Screen. Data for tumor model Lewis Lung Carcinoma (intravenous) in B6C3F1 mice
Conditions: endpoint: median survival time, schedule: Q01DX009 (ip), higher = longer survival
Method in brief: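 Tumors were transplanted into mice, which were then dosed with compound or vehicle. Survival was recorded in each group, and the treated figure was divided by the control figure.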

[1] = dose: 12.5 mg/kg/injection, vehicle: saline with Tween-80
[2] = dose: 25.0 mg/kg/injection, vehicle: saline with Tween-80
[3] = dose: 50.0 mg/kg/injection, vehicle: saline with Tween-80
[4] = dose: 100.0 mg/kg/injection, vehicle: saline with Tween-80
[5] = dose: 200.0 mg/kg/injection, vehicle: saline with Tween-80
[6] = dose: 100.0 mg/kg/injection, vehicle: Klucel (hydroxypropylcellulose) (HPC)
[7] = dose: 200.0 mg/kg/injection, vehicle: Klucel (hydroxypropylcellulose) (HPC)
[8] = dose: 400.0 mg/kg/injection, vehicle: Klucel (hydroxypropylcellulose) (HPC)
[9] = dose: 1.5 mg/kg/injection, vehicle: saline
[10] = dose: 3.0 mg/kg/injection, vehicle: saline
[11] = dose: 25.0 mg/kg/injection, vehicle: suspension in saline
[12] = dose: 50.0 mg/kg/injection, vehicle: suspension in saline
[13] = dose: 100.0 mg/kg/injection, vehicle: suspension in saline
[14] = dose: 200.0 mg/kg/injection, vehicle: suspension in saline
[15] = dose: 400.0 mg/kg/injection, vehicle: suspension in saline
[16] = dose: 1.5 mg/kg/injection, vehicle: Klucel (hydroxypropylcellulose) (HPC)
[17] = dose: 400.0 mg/kg/injection, vehicle: saline with Tween-80

Measured: T/C

Cc1cc(NCCN(C(C)C)C(C)C)nc(/N=C(\N)Nc2ccc(Cl)c(C(F)(F)F)c2)n1
inactive: dose: 1.25 mg/kg/injection, vehicle: Klucel (hydroxypropylcellulose) (HPC) 93 % of control and 95 % of control | dose: 2.5 mg/kg/injection, vehicle: Klucel (hydroxypropylcellulose) (HPC) 95 % of control and 100 % of control | dose: 5.0 mg/kg/injection, vehicle: Klucel (hydroxypropylcellulose) (HPC) 94 % of control and 96 % of control | dose: 10.0 mg/kg/injection, vehicle: Klucel (hydroxypropylcellulose) (HPC) 97 % of control and 117 % of control | dose: 20.0 mg/kg/injection, vehicle: Klucel (hydroxypropylcellulose) (HPC) 94 % of control and 112 % of control

CCCCOCN(COCCCC)C12CC3CC(CC(C3)C1)C2
inactive: [1] 101 % of control | [2] 111 % of control | [3] 97 % of control | [4] 106 % of control | [5] 100 % of control

CC1C=NNC1=O (stereo unspecified)
inactive: dose: 50.0 mg/kg/injection, vehicle: Klucel (hydroxypropylcellulose) (HPC) 103 % of control | [6] 103 % of control | [7] 113 % of control | [8] 121 % of control | dose: 800.0 mg/kg/injection, vehicle: Klucel (hydroxypropylcellulose) (HPC) 118 % of control

O=C1C=C2C(=CCOC2O)O1 (stereo unspecified)
inactive: dose: 0.25 mg/kg/injection, vehicle: Klucel (hydroxypropylcellulose) (HPC) 99 % of control | dose: 0.5 mg/kg/injection, vehicle: Klucel (hydroxypropylcellulose) (HPC) 104 % of control | dose: 0.75 mg/kg/injection, vehicle: saline 97 % of control | dose: 1.0 mg/kg/injection, vehicle: Klucel (hydroxypropylcellulose) (HPC) 94 % of control | [9] 98 % of control | dose: 2.0 mg/kg/injection, vehicle: Klucel (hydroxypropylcellulose) (HPC) 98 % of control | [10] 98 % of control | dose: 4.0 mg/kg/injection, vehicle: Klucel (hydroxypropylcellulose) (HPC) 94 % of control

S=c1nc[nH]c2nc[nH]c12
inactive: dose: 15.0 mg/kg/injection, vehicle: Klucel (hydroxypropylcellulose) (HPC) 107 % of control | dose: 30.0 mg/kg/injection, vehicle: Klucel (hydroxypropylcellulose) (HPC) 116 % of control

O=CC=O
inactive: dose: 6.25 mg/kg/injection, vehicle: saline with Tween-80 102 % of control | [1] 116 % of control | [2] 107 % of control | [3] 107 % of control | [4] 95 % of control | [5] 101 % of control

O=S(=O)(N=N/C=C1\C=CC=CN1O)c1cccs1
inactive: [1] 111 % of control | [2] 103 % of control | [3] 103 % of control | [4] 107 % of control

Cc1cc(NCCCN(C)C)c2ccc3c(ccc4c(NCCCN(C)C)cc(C)nc43)c2n1
inactive: dose: 0.19 mg/kg/injection, vehicle: saline with Tween-80 101 % of control | dose: 0.39 mg/kg/injection, vehicle: saline with Tween-80 109 % of control | dose: 0.78 mg/kg/injection, vehicle: saline with Tween-80 100 % of control | dose: 1.56 mg/kg/injection, vehicle: saline with Tween-80 95 % of control | dose: 3.12 mg/kg/injection, vehicle: saline with Tween-80 100 % of control | dose: 3.12 mg/kg/injection, vehicle: saline 109 % of control

Cc1cn(C2CC(F)C(CO)O2)c(=O)[nH]c1=O (stereo unspecified)
inactive: dose: 12.5 mg/kg/injection, vehicle: suspension in saline 106 % of control | [11] 103 % of control | [12] 106 % of control | [13] 100 % of control | [14] 121 % of control | [15] 122 % of control

CS(=O)(=O)Nc1ccc(C(=O)CCN2CCCCCC2)cc1
inactive: [11] 95 % of control | [12] 100 % of control | [13] 105 % of control | [14] 100 % of control | [15] 102 % of control

CC12CC(C(=O)O)C3(O)CC(C)(C1)CC(C)(C2)C3 (stereo unspecified) (tested in a mixture with another compound)
inactive: [6] 124 % of control | [7] 114 % of control | [8] 98 % of control

C[C@H](N)C(=O)N[C@@H]1[C@H]2C(=C(O)C[C@@H](O)[C@@H]2O)C(=O)O[C@]1(C)C(Cl)Cl
inactive: dose: 0.19 mg/kg/injection, vehicle: Klucel (hydroxypropylcellulose) (HPC) 97 % of control | dose: 0.38 mg/kg/injection, vehicle: Klucel (hydroxypropylcellulose) (HPC) 101 % of control | dose: 0.75 mg/kg/injection, vehicle: Klucel (hydroxypropylcellulose) (HPC) 111 % of control | [16] 100 % of control

C/C(=N\N=C(/[Se])N1CC2CCC(CC2)C1)c1ccccn1
inactive: [16] 106 % of control | dose: 3.0 mg/kg/injection, vehicle: Klucel (hydroxypropylcellulose) (HPC) 103 % of control | dose: 6.25 mg/kg/injection, vehicle: Klucel (hydroxypropylcellulose) (HPC) 110 % of control

O=c1n[n+]([O-])ccn1C1OC(CO)C(O)C1O (stereo unspecified)
inactive: dose: 50.0 mg/kg/injection, vehicle: saline 117 % of control | dose: 100.0 mg/kg/injection, vehicle: saline 107 % of control | dose: 400.0 mg/kg/injection, vehicle: saline 89 % of control

OC1(CSc2ccccc2)CCCCC1
inactive: [1] 95 % of control and 119 % of control | [2] 107 % of control | [3] 94 % of control and 114 % of control | [4] 103 % of control and 106 % of control | [5] 100 % of control and 105 % of control | [17] 108 % of control and 110 % of control

Nc1nc(-c2ccccc2)c(Br)c(=O)[nH]1
inactive: [2] 114 % of control | [3] 107 % of control | [4] 110 % of control | [5] 92 % of control and 121 % of control | [17] 100 % of control and 118 % of control | dose: 800.0 mg/kg/injection, vehicle: saline with Tween-80 100 % of control

COc1ccc(CC2C(=O)NC(C)C(=O)N(C)C3Cc4ccc(cc4)Oc4cc(ccc4O)CC(C(=O)NC(C)C(=O)NC(C)C(=O)N2C)N(C)C3=O)cc1 (stereo unspecified)
inactive: dose: 0.25 mg/kg/injection, vehicle: saline with Tween-80 110 % of control | dose: 0.5 mg/kg/injection, vehicle: saline with Tween-80 107 % of control | dose: 1.0 mg/kg/injection, vehicle: saline with Tween-80 106 % of control | dose: 2.0 mg/kg/injection, vehicle: saline with Tween-80 106 % of control

CC1=C(C)C(=O)O[C@@H]([C@](C)(O)[C@]2(O)CC[C@@]3(O)[C@@H]4C[C@H]5O[C@]56[C@@H](O)C=CC(=O)[C@]6(C)[C@H]4CC[C@]23C)C1
inactive: dose: 1.0 mg/kg/injection, vehicle: saline 97 % of control | dose: 2.0 mg/kg/injection, vehicle: saline 100 % of control and 101 % of control | dose: 4.0 mg/kg/injection, vehicle: saline 101 % of control and 104 % of control | dose: 8.0 mg/kg/injection, vehicle: saline 94 % of control and 101 % of control | dose: 16.0 mg/kg/injection, vehicle: saline 94 % of control | dose: 32.0 mg/kg/injection, vehicle: saline 92 % of control

CN(C)c1ncnc2c1ncn2C1OC(CO)C(N)C1O (stereo unspecified)
inactive: dose: 25.0 mg/kg/injection, vehicle: saline 112 % of control

CN(C)C1C(=O)C(C(=O)NP(=O)(NCCCO)N(CCCl)CCCl)=C(O)C2(O)C(=O)C3=C(O)c4c(O)cccc4C(C)(O)C3CC12 (stereo unspecified)
inactive: [2] 104 % of control | [3] 119 % of control | [4] 93 % of control

O=C(C1CO1)C(Cl)(Cl)Cl (stereo unspecified)
inactive: [9] 95 % of control | [10] 92 % of control | dose: 6.0 mg/kg/injection, vehicle: saline 97 % of control | dose: 12.0 mg/kg/injection, vehicle: saline 95 % of control | [2] 108 % of control
